Earlier results as cited in PMC9465641 (Frontiers in Pharmacology, 2022).

Set-up: method as in Wang et al., 2021; Chen et al., 2022
Conditions: range reported previously; ref Wang et al., 2021; Chen et al., 2022; cited from earlier work

Q: Which CL does the source give for polymyxin B here?
A: 1.59 to 2.86 L/h
